Experiment: Solubility testing in cosmetic solvents / emollients (clear solution)
Assay type: physicochemical
Conditions: 25°C
Procedure: The UV absorber mixture is suspended in 1200mg solvent in a glass container (sonication bath, vortex shaker). A magnetic stirring bar is added. The container is closed and stirred over night at room temperature (20-35°C).
Specification: clear solution
The solubility of Tinosorb S was determined as described in SOFW-Journal, 139, 7-2013, page 7-14.

- Solubility (Cetiol AB (C12-15 Alkyl Benzoate)): 10% w/w
- Solubility (Cetiol B (Dibutyl Adipate)): 12% w/w
- Solubility (Cetiol CC (Dicaprylyl Carbonate)): 9% w/w
- Solubility (Cetiol Ultimate (Undecane and Tridecane)): 1% w/w
- Solubility (Dub DBS (Dibutyl Sebacate)): 9% w/w
- Solubility (Finsolv EB: Ethylhexyl Benzoate): 17% w/w
- Solubility (Myritol 318 (Caprylic/Capric Triglyceride)): 5% w/w
- Solubility (Myritol 331 (Cocoglycerides)): 5% w/w
SMILES: CCCCC(CC)COc1ccc(-c2nc(-c3ccc(OC)cc3)nc(-c3ccc(OCC(CC)CCCC)cc3O)n2)c(O)c1 (centres unmarked) [Tinosorb S, Bis-Ethylhexyloxyphenol Methoxyphenyl Triazine]

Source: patent EP3556748A1, “HYDROXYPHENYL-TRIAZINE UV ABSORBERS” (BASF SE, priority 2018, dated 2019)
